{
  "source": "patent US20140227311A1",
  "about": "“Method for Removing Immunosuppressive Properties of HIV Envelope Glycoproteins” (priority 2011, published 2014)",
  "test_system": "CTLL-2 cells",
  "assay_type": "cell-based",
  "conditions": "dimerized peptides (disulfide); 24 h; wt effect at concentrations of 75 or 100 uM; FIG. 1",
  "note": "Ends that are not written are not given here.",
  "data": [
    {"sequence": "LQARILAVERYLKDQQLLGIWGCGGEKEKEK (also: dimerized) [wt ISD, dimerized wild-type ISD peptide with GGEKEKEK tail]", "values": [
      {"measurement": "inhibition of the proliferation of CTLL2 cells", "result": "inhibits the proliferation of the CTLL2 cells at concentrations of 75 or 100 uM"}
    ]}
  ]
}
